Values quoted from earlier work, collected in patent publication US7747395B2, “Method of inhibitor design and identification using a 3-D structure of human peptide deformylase” (Sloan-Kettering Institute for Cancer Research, priority 2007, dated 2010).

Test system: drug resistant bacterial strains
Details: cited from earlier work

## CC(C)(C)[C@H](NC(=O)[C@H](CC1CCCC1)CN(O)C=O)C(=O)N1CCN(Cc2ccc3c(c2)OCO3)CC1 [BB-83698]
  antibacterial activity in vitro: broad spectrum activity in vitro against drug resistant bacterial strains
